Data on 40 compounds can be found in EP0701444B1, “METHODS AND COMPOSITIONS FOR INDUCING SLEEP” (Purdue Pharma Ltd., priority 1993, dated 1994).

The assay deals with steroid site on the GABAA receptor-chloride channel complex. The assay can be described thus: [35S]TBPS binding assay. Details: species or system Male Sprague-Dawley rats. Conditions: inhibition of [35S]TBPS (2 nM) binding, rat cerebral cortex P2 membranes, 5 µM GABA, 90 minute incubation at 22°C. As to the method: TBPS binding assays were conducted according to the following procedures, which are described in Gee, K.W.; Lawrence, L.J.; and Yamamura, H. I., "Modulation of the Chloride Ionophore by Benzodiazepine Receptor Ligands Influence of Gamma-Aminobutyric Acid and Ligand Efficacy," Molecular Pharmacology, 30:218, 1986. Male Sprague-Dawley rats (200-250g) were anesthetized with carbon dioxide and decapitated. The rats' brains were removed and the cerebral cortices were dissected and homogenized in 10 volumes of 0.32 M sucrose. Tissue was centrifuged at 1000 x g for 10 minutes and the resultant supernatant was centrifuged at 9,000 g for 20 minutes. The resultant pellet was resuspended in 10 volumes of 200 mM NaCl/50 mM Na-K phosphate pH 7.4 buffer (binding buffer) and then centrifuged at 9,000 x g for 10 minutes. This washing procedure was repeated twice and the final P2 pellet was resuspended in the binding buffer. For the binding assay, [^35S] TBPS (2 nM) was co-incubated in binding buffer with P2 membranes and 5 µM GABA and either 1) no additions to measure total binding; 2) 2 µM unlabeled TPBS to measure nonspecific binding; 3) the neurosteroid ranging in concentration from 1 Nm to 10µM. Following a 90 minute incubation at 22°C, the suspension was filtered and the bound radioactivity was determined by liquid scintillation counting. […] A lower IC50 indicates higher affinity for the steroid site on the GABAA receptor-chloride channel complex. Table 1 gives the IC50 values of representative steroids used in the present invention.
Regarding `C[C@H](O)[C@H]1CC[C@H]2[C@@H]3CC[C@@H]4C[C@H](O)CC[C@]4(C)[C@H]3CC[C@]12C` [3α, 20a-dihydroxy-5β-pregnane], the IC50 (commonly the concentration that inhibits the measured activity by half) was 292 nM.

In turn, `C#C[C@@]1(O)CC[C@@]2(C)[C@H](CC[C@@H]3[C@@H]2CC[C@]2(C)[C@@H](C(=O)COC(C)=O)CC[C@@H]32)C1` [3α, 21-Dihydroxy-3β-ethynyl-5β-pregnan-20-one, 21-acetate] displayed an IC50 of 251 nM.

As to `C[C@]12CC[C@H]3[C@@H](CC[C@@H]4C[C@@](O)(C(F)(F)F)CC[C@@H]43)[C@@H]1CC[C@@H]2C(=O)CO` [3α, 21-Dihydroxy-3β-trifluoromethyl-19-nor-5β-pregnan-20-one], the IC50 was 265 nM.

For the compound `C[C@@]1(O)CC[C@@]2(C)[C@@H](CC[C@@H]3[C@@H]2CC[C@]2(C)[C@@H](C(=O)COS(C)(=O)=O)CC[C@@H]32)C1` [3α, 21-dihydroxy-3β-methyl-5α-pregnan-20-one 21-mesylate], the IC50 amounted to 255 nM.

Consider `C=CC[C@@]1(O)CC[C@@]2(C)[C@H](CC[C@@H]3[C@@H]2CC[C@]2(C)[C@@H](C(C)=O)CC[C@@H]32)C1` [3α-Hydroxy-3β-(2'-propenyl)-5β-pregnan-20-one], for which the IC50 was 75 nM.

Regarding `CC(=O)[C@H]1CC[C@H]2[C@@H]3CC[C@H]4C[C@@](O)(C#CC(C)O)CC[C@]4(C)[C@H]3CC[C@]12C` (stereo partly drawn) [3α-Hydroxy-3β-[3'(RS)-hydroxybutynyl]-5α-pregnan-20-one], the IC50 came out at 140 nM.

On to `C/C=C1/CC[C@H]2[C@@H]3CC[C@@H]4C[C@](C)(O)CC[C@@H]4[C@H]3CC[C@]12C` [3α-Hydroxy-3β-methyl-5β-19-nor-pregn-17 (Z)-ene], for which the IC50 is 154 nM.

Take `CC(=O)[C@H]1CC[C@H]2[C@@H]3CC[C@@H]4C[C@](C)(O)CC[C@@H]4[C@H]3CC[C@]12C` [3α-Hydroxy-3β-methyl-5β-19-nor-pregnan-20-one]: the IC50 was 26 nM.

Consider `CC(=O)[C@H]1CC[C@H]2[C@@H]3CC[C@H]4C[C@@](O)(C(F)(F)F)CC[C@@H]4[C@H]3CC[C@]12C` [3α-Hydroxy-3β-trifluoromethyl-19-nor-5α-pregnan-20-one], for which the IC50 amounted to 251 nM.

As for `C[C@@]12CCC[C@H]1[C@@H]1CC[C@H]3C[C@H](O)CC[C@]3(C)[C@H]1CC2` [3α-Hydroxy-5α-androstane], the concentration for half-maximal inhibition (IC50) came to 252 nM.

`C/C=C1/CC[C@H]2[C@@H]3CC[C@@H]4C[C@H](O)CC[C@@H]4[C@H]3CC[C@]12C` [3α-Hydroxy-5β-19-nor-pregn-17(z) ene] returned an IC50 of 209 nM.

`C#C[C@H]1CC[C@H]2[C@@H]3CC[C@H]4C[C@H](O)CC[C@]4(C)[C@H]3CC[C@]12C` [3α-Hydroxy-17b-ethynyl-5α-androstane] registered an IC50 of 254 nM.

`CCC(=O)[C@H]1CC[C@H]2[C@@H]3CC[C@H]4C[C@](C)(O)CC[C@]4(C)[C@H]3CC[C@]12C` [3α-hydroxy-3β,21-dimethyl-5α-pregnan-20-one] came in with an IC50 of 89 nM.

`CC(=O)[C@H]1CC[C@H]2[C@@H]3CC[C@H]4C[C@@](O)(CCl)CC[C@]4(C)[C@H]3CC[C@]12C` [3α-hydroxy-3β-chloromethyl-5α-pregnan-20-one]: the IC50 amounted to 93 nM.

With `CC[C@@]1(O)CC[C@@]2(C)[C@@H](CC[C@@H]3[C@@H]2CC[C@]2(C)[C@@H](C(C)=O)CC[C@@H]32)C1` [3α-hydroxy-3β-ethyl-5α-pregnan-20-one], the IC50 came out at 265 nM. Against the preceding compound, the IC50 is about 2.8-fold higher.

Turning to `CC(=O)[C@H]1CC[C@H]2[C@@H]3CC[C@H]4C[C@@](O)(CF)CC[C@]4(C)[C@H]3CC[C@]12C` [3α-hydroxy-3β-fluoromethyl-5α-pregnan-20-one], the IC50 stood at 200 nM.

In turn, `COC[C@@]1(O)CC[C@@]2(C)[C@@H](CC[C@@H]3[C@@H]2CC[C@]2(C)[C@@H](C(C)=O)CC[C@@H]32)C1` [3α-hydroxy-3β-methoxymethyl-5α-pregnan-20-one] registered an IC50 of 67 nM.

`C/C=C1/CC[C@H]2[C@@H]3CC[C@H]4C[C@](C)(O)CC[C@@H]4[C@H]3CC[C@]12C` [3α-hydroxy-3β-methyl-5α-19-nor-pregn-(Z)-17(20)-ene] registered an IC50 of 364 nM.

Take `CC(=O)[C@H]1CC[C@H]2[C@@H]3CC[C@H]4C[C@](C)(O)CC[C@@H]4[C@H]3CC[C@]12C` [3α-hydroxy-3β-methyl-5α-19-nor-pregnan-20-) one]: the IC50 was found to be 91 nM.

`C/C=C1/CC[C@H]2[C@@H]3CC[C@@H]4C[C@H](O)CC[C@]4(C)[C@H]3CC[C@]12C` [3α-hydroxy-5β-pregnan-cis(Z)-17(20)-ene] yielded an IC50 of 180 nM.

In the case of `CO/C=C1/CC[C@H]2[C@@H]3CC[C@H]4C[C@H](O)CC[C@@H]4[C@H]3CC[C@]12C` [3α-hydroxy-17(Z)-methoxymethylene-19-nor-5α-androstane], the IC50 worked out at 350 nM.

`C[C@]12CC[C@@H](O)C[C@@H]1CC[C@@H]1[C@@H]2CC[C@]2(C)[C@@H](C#N)CC[C@@H]12` [3α-hydroxy-17b-cyano-5α-androstane] gave an IC50 of 67 nM.

The compound `C[C@]12CC[C@@H](O)C[C@@H]1CC[C@@H]1[C@@H]2CC[C@]2(C)[C@@H](CO)CC[C@@H]12` [3α-hydroxy-17b-hydroxymethyl-5α-androstane-] displayed an IC50 of 455 nM.

In the case of `C/C=C1/CC[C@H]2[C@@H]3CC[C@H]4C[C@H](O)CC[C@@H]4[C@H]3CC[C@]12C` [3α-hydroxy-19-nor-5α-pregnan-cis-17(20)-ene], the IC50 was determined as 373 nM.

`C[C@]12CC[C@@H](O)C[C@@H]1CC[C@@H]1[C@@H]2CC[C@]2(C)[C@@H](C(=O)CSc3ccncc3)CC[C@@H]12` [3α-hydroxy-21-(pyrid-4-ylthio)-5α-pregnan-20-one] showed an IC50 of 23 nM. This IC50 lies about 16-fold lower than the previous one.

Compound `COCC(=O)[C@H]1CC[C@H]2[C@@H]3CC[C@@H]4C[C@@](O)(C(F)(F)F)CC[C@@H]4[C@H]3CC[C@]12C` [3α-hydroxy-21-methoxy-3β-trifluoromethyl-5β-19-nor-pregnan-20-one] returned an IC50 of 252 nM.

The compound `CC/C=C1/CC[C@H]2[C@@H]3CC[C@@H]4C[C@H](O)CC[C@]4(C)[C@H]3CC[C@]12C` [3α-hydroxy-21-methyl-5β-pregnan-17(20)(Z)-ene] had an IC50 of 217 nM.

Take `CCC(=O)[C@H]1CC[C@H]2[C@@H]3CC[C@@H]4C[C@H](O)CC[C@]4(C)[C@H]3CC[C@]12C` [3α-hydroxy-21-methyl-5β-pregnan-20-one]: the IC50 amounted to 78 nM.

With `COC[C@@]1(O)CC[C@@]2(C)[C@H](CC[C@@H]3[C@@H]2CC[C@]2(C)[C@@H](C(C)=O)CC[C@@H]32)C1` [3α-hydroxy-30-methoxymethyl-5β-pregnan-20-one], the IC50 was 40 nM.

For `CCCCCC#C[C@@]1(O)CC[C@@]2(C)[C@H](CC[C@@H]3[C@@H]2CC[C@]2(C)[C@@H](C(C)=O)CC[C@@H]32)C1` [3β-(1-Heptynyl)-3α-hydroxy-5β-pregnan-20-one], the IC50 came out at 65 nM. This IC50 lies about 1.6-fold higher than the previous one.

`CCCCC#C[C@@]1(O)CC[C@@]2(C)[C@H](CC[C@@H]3[C@@H]2CC[C@]2(C)[C@@H](C(C)=O)CC[C@@H]32)C1` [3β-(1-Hexynyl)-3α-hydroxy-5β-pregnan-20-one] showed an IC50 of 44 nM. The IC50 values of the last two compounds are within 1.5-fold of each other.

Take `CCCCCCC#C[C@@]1(O)CC[C@@]2(C)[C@H](CC[C@@H]3[C@@H]2CC[C@]2(C)[C@@H](C(C)=O)CC[C@@H]32)C1` [3β-(1-Octynyl)-3α-hydroxy-5β-pregnan-20-one]: the IC50 came to 63 nM.

With `CC(=O)[C@H]1CC[C@H]2[C@@H]3CC[C@@H]4C[C@@](O)(C#Cc5ccccc5O)CC[C@]4(C)[C@H]3CC[C@]12C` [3β-(2'-Hydroxyphenyl)ethynyl-3α-hydroxy-5β-pregnan-20-one], the IC50 was 192 nM.

The compound `CC(=O)c1ccc(C#C[C@@]2(O)CC[C@@]3(C)[C@H](CC[C@@H]4[C@@H]3CC[C@]3(C)[C@@H](C(C)=O)CC[C@@H]43)C2)cc1` [3β-(4'-Acetylphenyl)ethynyl-3α-hydroxy-5β-pregnan-20-one] showed an IC50 of 14 nM.

The compound `CCOC(=O)c1ccc(C#C[C@@]2(O)CC[C@@]3(C)[C@H](CC[C@@H]4[C@@H]3CC[C@]3(C)[C@@H](C(C)=O)CC[C@@H]43)C2)cc1` [3β-(4'-Carboxyphenyl)ethynyl-3α-hydroxy-5β-pregnan-20-one ethyl ester] registered a half-maximal inhibitory concentration (IC50) of 8 nM.

Take `CC(=O)[C@H]1CC[C@H]2[C@@H]3CC[C@H]4C[C@@](O)(CBr)CC[C@]4(C)[C@H]3CC[C@]12C` [3β-(Bromomethyl)-3α-hydroxy-5α-pregnan-20-one]: the IC50 is 190 nM.

On to `C=CCC[C@@]1(O)CC[C@@]2(C)[C@@H](CC[C@@H]3[C@@H]2CC[C@]2(C)[C@@H](C(C)=O)CC[C@@H]32)C1` [3β-(But-3-enyl)-3α-hydroxy-5α-pregnan-20-one], for which the IC50 was 242 nM.

As to `C=C=CC[C@@]1(O)CC[C@@]2(C)[C@@H](CC[C@@H]3[C@@H]2CC[C@]2(C)[C@@H](C(C)=O)CC[C@@H]32)C1` [3β-(Buta-2,3-dienyl)-3α-hydroxy-5α-pregnan-20-one], the IC50 came out at 347 nM.

On to `CCOC[C@@]1(O)CC[C@@]2(C)[C@@H](CC[C@@H]3[C@@H]2CC[C@]2(C)[C@@H](C(C)=O)CC[C@@H]32)C1` [3β-(Ethoxymethyl)-3α-hydroxy-5α-pregnan-20-one], for which the IC50 worked out at 154 nM.

As to `CC(=O)[C@H]1CC[C@H]2[C@@H]3CC[C@@H]4C[C@@](O)(C#CCl)CC[C@]4(C)[C@H]3CC[C@]12C` [3β-(chloroethynyl)-3α-hydroxy-5β-pregnan-20-one], the IC50 is 26 nM.
